Experimental data published in patent US11215617B2, “Treatment of metastatic prostate cancer” (The Regents of the University of California, priority 2013, dated 2022).
Where a SMILES comes first, the peptide text is derived from it. The star is where a group is joined. Cbz = O=C(OCc1ccccc1)*

What was measured:
LNCaP-s17 cells = experiment: Cell growth assay; format: cell-based, human; settings: 10 μM AG490 with 20 μM enzalutamide, 48 h
Experimental: Total cell numbers were counted and the cell survival rate (%) was calculated. Cell survival rate (%)=(Treatment group cell number/Control group cell number)×100%. […] Total cell numbers were counted after 2, 4, and 7 days. […] The cells were treated as indicated and total cell numbers were counted.

AR-V7 = target: T1, AR-V7 (Homo sapiens, UniProt P10275); experiment: AR-V7 protein degradation after cycloheximide block in CWR22rv1 cells; format: cell-based; settings: MG132 5 μM, cycloheximide 50 μg/mL, 2 μM niclosamide, 8 h
T1 construct: CWR22rv1 cells, which express high endogenous AR-V7; endogenous in cells; host or cells: CWR22rv1
T1 sequence (P10275 1-644 isoform P10275-3): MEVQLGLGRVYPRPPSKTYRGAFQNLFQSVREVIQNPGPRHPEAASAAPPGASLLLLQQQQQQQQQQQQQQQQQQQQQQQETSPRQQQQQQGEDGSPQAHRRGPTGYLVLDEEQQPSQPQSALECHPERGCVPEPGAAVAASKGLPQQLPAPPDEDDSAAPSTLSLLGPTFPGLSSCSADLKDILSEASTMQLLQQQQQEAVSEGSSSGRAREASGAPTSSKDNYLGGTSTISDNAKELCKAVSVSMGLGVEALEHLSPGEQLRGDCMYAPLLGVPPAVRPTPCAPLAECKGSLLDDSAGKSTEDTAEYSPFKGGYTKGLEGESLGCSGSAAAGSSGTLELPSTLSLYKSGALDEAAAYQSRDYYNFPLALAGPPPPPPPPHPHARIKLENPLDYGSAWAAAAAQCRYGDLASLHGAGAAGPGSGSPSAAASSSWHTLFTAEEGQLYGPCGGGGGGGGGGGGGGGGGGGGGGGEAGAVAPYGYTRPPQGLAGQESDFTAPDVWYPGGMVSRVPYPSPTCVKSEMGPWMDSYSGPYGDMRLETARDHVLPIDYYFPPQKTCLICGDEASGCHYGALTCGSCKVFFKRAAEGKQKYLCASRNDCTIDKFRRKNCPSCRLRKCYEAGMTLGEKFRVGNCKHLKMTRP
Experimental: At specified time points, cells were harvested, and the levels of AR-V7 protein were measured by Western blot using antibodies specific against AR-V7. […] The cell lysates were prepared at 8 h. AR-V7 protein levels were determined by Western blot analysis using antibodies specifically against AR-V7 and tubulin as a control.
At specified time points, cells were harvested, and the levels of AR-V7 protein were measured by Western blot using antibodies specific against AR-V7.

In the case of `N#C/C(=C/c1ccc(O)c(O)c1)C(=O)NCc1ccccc1` [AG490], the “reversal of enzalutamide resistance” value (LNCaP-s17 cells) is reported as “reverse enzalutamide resistance”.

For `CC(C)C[C@@H](C=O)NC(=O)[C@H](CC(C)C)NC(=O)[C@H](CC(C)C)NC(=O)OCc1ccccc1` [MG132] (Cbz-Leu-Leu-Leu-aldehyde), the “niclosamide effect on AR-V7 protein levels in presence of MG132” value (AR-V7) was “able to retard the niclosamide effect on AR-V7 protein levels”.
